Experiments:
Type in all cases: in vivo
[1] = tested on: sedge, umbrella (small-flower umbrella sedge, Cyperus difformis); test: Test C flooded paddy test: sedge, umbrella; conditions: scale 0 to 100 (0 no effect, 100 complete control)
Summary of the method: (§1)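 Visual ratings from 0 (no effect) to 100 (complete control), made against untreated controls 13 to 15 days after treatment, express plant response. Compounds went directly into paddy water over 2-leaf stage plants in pots flooded to 3 cm.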

rice (Oryza sativa) = test: Test C flooded paddy test: rice; conditions: scale 0 to 100 (0 no effect, 100 complete control)
Summary of the method: as §1

[2] = tested on: wheat (Triticum aestivum); test: Test A pre-/postemergence: wheat; conditions: for Wheat plant response rating: Postemergence; for Plant response rating, Wheat: Preemergence
Summary of the method: (§2)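 Injury was scored visually on a 0 (no effect) to 100 (complete control) scale versus untreated controls roughly ten days after treatment in the greenhouse. Compounds, formulated in surfactant-containing non-phytotoxic solvent, went on as soil-directed preemergence spray or postemergence to one- to two-leaf plants 2–10 cm tall.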

[3] = tested on: velvetleaf (Abutilon theophrasti); test: Test A pre-/postemergence: velvetleaf; conditions: for Velvetleaf plant response rating: Postemergence; for Plant response rating, Velvetleaf: Preemergence
Summary of the method: as §2

[4] = tested on: foxtail, giant (giant foxtail, Setaria faberii); test: Test A pre-/postemergence: foxtail, giant; conditions: for Foxtail, Giant plant response rating: Postemergence; for Plant response rating, Foxtail, Giant: Preemergence
Summary of the method: as §2

[5] = tested on: barnyardgrass (Echinochloa crus-galli); test: Test C flooded paddy test: barnyardgrass; conditions: scale 0 to 100 (0 no effect, 100 complete control)
Summary of the method: as §1

corn (Zea mays) = test: Test A pre-/postemergence: corn; conditions: for Corn plant response rating: Postemergence; for Plant response rating, Corn: Preemergence
Summary of the method: as §2

[6] = tested on: barnyardgrass (Echinochloa crus-galli); test: Test A pre-/postemergence: barnyardgrass; conditions: for Barnyardgrass plant response rating: Postemergence; for Plant response rating, Barnyardgrass: Preemergence
Summary of the method: as §2

[7] = tested on: morningglory (Ipomoea spp.); test: Test A pre-/postemergence: morningglory; conditions: for Morningglory plant response rating: Postemergence; for Plant response rating, Morningglory: Preemergence
Summary of the method: as §2

[8] = tested on: crabgrass, large (large crabgrass, Digitaria sanguinalis); test: Test A pre-/postemergence: crabgrass, large; conditions: for Crabgrass, Large plant response rating: Postemergence; for Plant response rating, Crabgrass, Large: Preemergence
Summary of the method: as §2

[9] = tested on: ducksalad (Heteranthera limosa); test: Test C flooded paddy test: ducksalad; conditions: scale 0 to 100 (0 no effect, 100 complete control)
Summary of the method: as §1

[10] = tested on: pigweed (Amaranthus retroflexus); test: Test A pre-/postemergence: pigweed; conditions: for Pigweed plant response rating: Postemergence; for Plant response rating, Pigweed: Preemergence
Summary of the method: as §2

[11] = Flood (flooded paddy test), 62 g ai/ha, visual rating after 13 to 15 days
[12] = Flood (flooded paddy test), 125 g ai/ha, visual rating after 13 to 15 days
[13] = Flood (flooded paddy test), 250 g ai/ha, visual rating after 13 to 15 days
[14] = 125 g ai/ha, 0 to 100 scale, 0 is no effect, 100 is complete control
[15] = 500 g ai/ha, visual rating on 0 to 100 scale (0 no effect, 100 complete control), approximately ten days
[16] = 125 g ai/ha, 0 to 100 scale (0 no effect, 100 complete control)
[17] = 500 g ai/ha, 0 to 100 scale, 0 is no effect, 100 is complete control

Cc1nn(-c2ccc(C(F)(F)F)cc2)nc1Oc1cnn(CC(F)(F)F)c1 [Compound 74]
Plant response rating, Sedge, Umbrella [1, 11]: 0
Plant response rating, Sedge, Umbrella [1, 12]: 0
Plant response rating, Sedge, Umbrella [1, 13]: 0
Plant response rating, Sedge, Umbrella ([1]; Flood, 31 g ai/ha): 0
Plant response rating, Rice (rice (Oryza sativa); [11]): 0
Plant response rating, Rice (rice (Oryza sativa); [12]): 0
Plant response rating, Rice (rice (Oryza sativa); [13]): 0
Plant response rating, Rice (rice (Oryza sativa); Flood, 31 g ai/ha): 0
Wheat plant response rating [2, 14]: 0
Wheat plant response rating [2, 15]: 0
Plant response rating, Wheat [2, 16]: 0
Plant response rating, Wheat [2, 17]: 0
Velvetleaf plant response rating [3, 14]: 0
Velvetleaf plant response rating [3, 15]: 0
Plant response rating, Velvetleaf [3, 16]: 0
Plant response rating, Velvetleaf [3, 17]: 0
Foxtail, Giant plant response rating [4, 14]: 0
Foxtail, Giant plant response rating [4, 15]: 0
Plant response rating, Foxtail, Giant [4, 16]: 0
Plant response rating, Foxtail, Giant [4, 17]: 0
Plant response rating, Barnyardgrass [5, 11]: 0
Plant response rating, Barnyardgrass [5, 12]: 0
Plant response rating, Barnyardgrass [5, 13]: 0
Plant response rating, Barnyardgrass ([5]; Flood, 31 g ai/ha): 0
Corn plant response rating (corn (Zea mays); [14]): 0
Corn plant response rating (corn (Zea mays); [15]): 0
Plant response rating, Corn (corn (Zea mays); [16]): 0
Plant response rating, Corn (corn (Zea mays); [17]): 0
Barnyardgrass plant response rating [6, 14]: 0
Barnyardgrass plant response rating [6, 15]: 0
Plant response rating, Barnyardgrass [6, 16]: 0
Plant response rating, Barnyardgrass [6, 17]: 0
Morningglory plant response rating [7, 14]: 0
Morningglory plant response rating [7, 15]: 0
Plant response rating, Morningglory [7, 16]: 0
Plant response rating, Morningglory [7, 17]: 0
Crabgrass, Large plant response rating [8, 14]: 0
Crabgrass, Large plant response rating [8, 15]: 0
Plant response rating, Crabgrass, Large [8, 16]: 0
Plant response rating, Crabgrass, Large [8, 17]: 0
Plant response rating, Ducksalad [9, 11]: 0
Plant response rating, Ducksalad [9, 12]: 0
Plant response rating, Ducksalad [9, 13]: 0
Plant response rating, Ducksalad ([9]; Flood, 31 g ai/ha): 0
Pigweed plant response rating [10, 14]: 0
Pigweed plant response rating [10, 15]: 0
Plant response rating, Pigweed [10, 16]: 0
Plant response rating, Pigweed [10, 17]: 0

Cc1nn(-c2cccc(C(F)(F)F)n2)nc1C(=O)c1cccc(C(F)(F)F)c1 [Compound 57]
Plant response rating, Sedge, Umbrella [1, 11]: 0
Plant response rating, Sedge, Umbrella [1, 12]: 0
Plant response rating, Sedge, Umbrella [1, 13]: 0
Plant response rating, Sedge, Umbrella ([1]; Flood, 31 g ai/ha): 0
Plant response rating, Rice (rice (Oryza sativa); [11]): 0
Plant response rating, Rice (rice (Oryza sativa); [12]): 0
Plant response rating, Rice (rice (Oryza sativa); [13]): 0
Plant response rating, Rice (rice (Oryza sativa); Flood, 31 g ai/ha): 0
Wheat plant response rating [2, 14]: 0
Wheat plant response rating [2, 15]: 0
Plant response rating, Wheat [2, 16]: 0
Plant response rating, Wheat [2, 17]: 0
Velvetleaf plant response rating [3, 14]: 0
Velvetleaf plant response rating [3, 15]: 0
Plant response rating, Velvetleaf [3, 16]: 0
Plant response rating, Velvetleaf [3, 17]: 0
Foxtail, Giant plant response rating [4, 14]: 0
Foxtail, Giant plant response rating [4, 15]: 0
Plant response rating, Foxtail, Giant [4, 16]: 0
Plant response rating, Foxtail, Giant [4, 17]: 0
Plant response rating, Barnyardgrass [5, 11]: 0
Plant response rating, Barnyardgrass [5, 12]: 0
Plant response rating, Barnyardgrass [5, 13]: 0
Plant response rating, Barnyardgrass ([5]; Flood, 31 g ai/ha): 0
Corn plant response rating (corn (Zea mays); [14]): 0
Corn plant response rating (corn (Zea mays); [15]): 0
Plant response rating, Corn (corn (Zea mays); [16]): 0
Plant response rating, Corn (corn (Zea mays); [17]): 0
Barnyardgrass plant response rating [6, 14]: 0
Barnyardgrass plant response rating [6, 15]: 0
Plant response rating, Barnyardgrass [6, 16]: 0
Plant response rating, Barnyardgrass [6, 17]: 0
Morningglory plant response rating [7, 14]: 0
Morningglory plant response rating [7, 15]: 0
Plant response rating, Morningglory [7, 16]: 0
Plant response rating, Morningglory [7, 17]: 0
Crabgrass, Large plant response rating [8, 14]: 0
Crabgrass, Large plant response rating [8, 15]: 10
Plant response rating, Crabgrass, Large [8, 16]: 0
Plant response rating, Crabgrass, Large [8, 17]: 0
Plant response rating, Ducksalad [9, 11]: 0
Plant response rating, Ducksalad [9, 12]: 0
Plant response rating, Ducksalad [9, 13]: 0
Plant response rating, Ducksalad ([9]; Flood, 31 g ai/ha): 0
Pigweed plant response rating [10, 14]: 0
Pigweed plant response rating [10, 15]: 10
Plant response rating, Pigweed [10, 16]: 0
Plant response rating, Pigweed [10, 17]: 0

Cc1nn(-c2ccc(F)cc2)nc1Cn1ccc(C(F)(F)F)n1 [Compound 2]
Plant response rating, Sedge, Umbrella [1, 11]: 0
Plant response rating, Sedge, Umbrella [1, 13]: 70
Plant response rating, Rice (rice (Oryza sativa); [11]): 0
Plant response rating, Rice (rice (Oryza sativa); [13]): 0
Wheat plant response rating [2, 14]: 0
Wheat plant response rating [2, 15]: 10
Plant response rating, Wheat [2, 16]: 0
Plant response rating, Wheat [2, 17]: 0
Velvetleaf plant response rating [3, 14]: 0
Velvetleaf plant response rating [3, 15]: 0
Plant response rating, Velvetleaf [3, 16]: 0
Plant response rating, Velvetleaf [3, 17]: 0
Foxtail, Giant plant response rating [4, 14]: 10
Foxtail, Giant plant response rating [4, 15]: 20
Plant response rating, Foxtail, Giant [4, 16]: 10
Plant response rating, Foxtail, Giant [4, 17]: 50
Plant response rating, Barnyardgrass [5, 11]: 0
Plant response rating, Barnyardgrass [5, 13]: 0
Corn plant response rating (corn (Zea mays); [14]): 10
Corn plant response rating (corn (Zea mays); [15]): 10
Plant response rating, Corn (corn (Zea mays); [16]): 0
Plant response rating, Corn (corn (Zea mays); [17]): 0
Barnyardgrass plant response rating [6, 14]: 0
Barnyardgrass plant response rating [6, 15]: 10
Plant response rating, Barnyardgrass [6, 16]: 0
Plant response rating, Barnyardgrass [6, 17]: 10
Morningglory plant response rating [7, 14]: 10
Morningglory plant response rating [7, 15]: 20
Plant response rating, Morningglory [7, 16]: 0
Plant response rating, Morningglory [7, 17]: 0
Crabgrass, Large plant response rating [8, 14]: 10
Crabgrass, Large plant response rating [8, 15]: 20
Plant response rating, Crabgrass, Large [8, 16]: 10
Plant response rating, Crabgrass, Large [8, 17]: 90
Plant response rating, Ducksalad [9, 11]: 0
Plant response rating, Ducksalad [9, 13]: 0
Pigweed plant response rating [10, 14]: 30
Pigweed plant response rating [10, 15]: 90
Plant response rating, Pigweed [10, 16]: 0
Plant response rating, Pigweed [10, 17]: 60
